In patent publication US20180201650A1 (BGI SHENZHEN, priority 2014, published 2018):
“Also recorded” adds a separate entry of the source.

Test system: HVA calcium channel
Type: cell-based, rat

GICCVDDTCTTHSGCL [κ-CPTx-btl05]
current after loading (pA): −62.59 pA
current before loading (pA): −391.32 pA
inhibition of HVA calcium channel currents compared with Nifedipine (in words): inhibitory effect is higher than that of Nifedipine; also recorded: higher inhibition rate on HVA calcium channel currents than Nifedipine
inhibition rate (%) (10 μM): 83.24%
